Results: article PMC6345558 (European journal of medicinal chemistry, 2018)

Experiments:
[1] = test system: MCF7 cancer cells; experiment: MTT cytotoxicity, MCF7 breast cancer cells; type: cell-based, human; conditions: for IC50: read-out: IC50 MCF7, MTT assay, 24 h incubation
[2] = test system: MDA-MB-231 cancer cells; experiment: MTT cytotoxicity, MDA-MB-231 breast cancer cells; type: cell-based, human; conditions: read-out: IC50 MDA-MB-231; MTT assay, 24 h incubation
[3] = test system: NIH3T3 cells; experiment: MTT growth inhibition, NIH3T3 control cells; type: cell-based; conditions: read-out: Half inhibitory growth concentration, IG50, NIH3T3, empty plasmid control, 48 h incubation at 37 °C
[4] = target: MRP2 (Homo sapiens, UniProt Q92887); experiment: Flow cytometry, inhibition of calcein AM efflux by MRP2; type: cell-based; conditions: compound 20 µM, 0.2 µM calcein AM, transfected cells
Sequence of MRP2 (Q92887 whole entry): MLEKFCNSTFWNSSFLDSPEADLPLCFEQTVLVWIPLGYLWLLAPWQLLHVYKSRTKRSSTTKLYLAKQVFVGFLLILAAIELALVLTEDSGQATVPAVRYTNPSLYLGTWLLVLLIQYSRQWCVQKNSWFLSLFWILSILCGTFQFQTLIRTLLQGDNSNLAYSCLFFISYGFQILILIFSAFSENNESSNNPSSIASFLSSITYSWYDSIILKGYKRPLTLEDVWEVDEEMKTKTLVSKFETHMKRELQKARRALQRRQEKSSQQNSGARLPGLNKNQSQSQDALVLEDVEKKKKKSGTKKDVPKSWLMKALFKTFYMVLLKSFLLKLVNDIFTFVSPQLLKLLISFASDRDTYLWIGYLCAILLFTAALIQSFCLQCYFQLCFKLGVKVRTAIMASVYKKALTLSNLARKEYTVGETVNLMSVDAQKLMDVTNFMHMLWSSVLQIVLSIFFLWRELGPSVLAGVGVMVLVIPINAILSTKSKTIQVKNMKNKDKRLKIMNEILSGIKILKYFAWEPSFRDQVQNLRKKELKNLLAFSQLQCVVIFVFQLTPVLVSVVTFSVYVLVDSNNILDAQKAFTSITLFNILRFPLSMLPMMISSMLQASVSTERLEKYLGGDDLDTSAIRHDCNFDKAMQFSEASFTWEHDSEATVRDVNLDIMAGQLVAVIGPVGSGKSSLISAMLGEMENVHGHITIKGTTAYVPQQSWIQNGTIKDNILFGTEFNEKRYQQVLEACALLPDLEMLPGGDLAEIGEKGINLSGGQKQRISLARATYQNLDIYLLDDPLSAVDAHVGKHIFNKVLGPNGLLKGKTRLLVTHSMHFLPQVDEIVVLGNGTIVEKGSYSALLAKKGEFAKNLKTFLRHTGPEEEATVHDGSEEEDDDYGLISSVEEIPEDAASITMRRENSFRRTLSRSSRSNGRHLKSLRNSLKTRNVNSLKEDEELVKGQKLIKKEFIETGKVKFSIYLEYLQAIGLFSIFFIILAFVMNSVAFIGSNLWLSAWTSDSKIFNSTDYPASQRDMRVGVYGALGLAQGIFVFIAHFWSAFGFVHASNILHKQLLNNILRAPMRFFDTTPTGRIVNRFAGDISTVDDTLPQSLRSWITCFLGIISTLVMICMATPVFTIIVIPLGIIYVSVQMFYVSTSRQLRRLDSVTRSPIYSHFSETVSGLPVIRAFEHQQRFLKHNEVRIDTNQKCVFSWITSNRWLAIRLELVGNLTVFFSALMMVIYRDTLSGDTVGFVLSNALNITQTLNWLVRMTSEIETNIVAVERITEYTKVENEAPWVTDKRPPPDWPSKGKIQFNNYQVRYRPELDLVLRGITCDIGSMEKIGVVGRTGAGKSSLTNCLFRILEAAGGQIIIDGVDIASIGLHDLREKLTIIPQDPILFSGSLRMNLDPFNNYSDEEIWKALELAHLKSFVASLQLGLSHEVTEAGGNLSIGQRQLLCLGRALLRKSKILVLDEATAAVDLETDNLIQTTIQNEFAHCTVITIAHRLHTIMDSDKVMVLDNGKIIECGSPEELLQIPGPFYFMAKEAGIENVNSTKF

[5] = test system: HEK293 cells overexpressing BCRP; experiment: MTT growth inhibition, HEK293 cells overexpressing BCRP; conditions: HEK293/BCRP vs HEK293
[6] = target: T1, BCRP (ABCG2) (Homo sapiens, UniProt Q9UNQ0); experiment: Flow cytometry, inhibition of mitoxantrone efflux by BCRP; conditions: compound 20 µM, 5 µM mitoxantrone, transfected cells
T1 sequence (Q9UNQ0 1-655): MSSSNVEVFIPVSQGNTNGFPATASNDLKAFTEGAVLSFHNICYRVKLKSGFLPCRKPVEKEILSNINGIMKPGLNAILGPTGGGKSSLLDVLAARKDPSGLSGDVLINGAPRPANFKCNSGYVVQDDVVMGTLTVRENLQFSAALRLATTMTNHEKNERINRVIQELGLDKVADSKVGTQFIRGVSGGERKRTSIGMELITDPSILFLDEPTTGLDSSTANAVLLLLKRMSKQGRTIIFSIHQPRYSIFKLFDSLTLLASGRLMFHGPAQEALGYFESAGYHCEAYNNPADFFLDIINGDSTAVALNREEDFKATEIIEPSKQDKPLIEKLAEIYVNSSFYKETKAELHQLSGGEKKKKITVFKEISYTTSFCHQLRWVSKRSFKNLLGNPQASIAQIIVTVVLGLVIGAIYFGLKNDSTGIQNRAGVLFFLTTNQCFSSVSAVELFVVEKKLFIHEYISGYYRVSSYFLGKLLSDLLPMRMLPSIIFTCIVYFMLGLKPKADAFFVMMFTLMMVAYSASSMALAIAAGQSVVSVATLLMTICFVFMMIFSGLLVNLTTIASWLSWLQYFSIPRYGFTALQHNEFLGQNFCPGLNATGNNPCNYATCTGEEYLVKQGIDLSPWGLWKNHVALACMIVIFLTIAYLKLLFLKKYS

[7] = test system: NIH3T3 cells overexpressing P-gp; experiment: MTT growth inhibition, NIH3T3 cells overexpressing P-gp
[8] = target: MRP1 (Homo sapiens, UniProt P33527); experiment: Flow cytometry, inhibition of calcein AM efflux by MRP1; type: cell-based; conditions: compound 20 µM, 0.2 µM calcein AM, transfected cells
Sequence of MRP1 (P33527 whole entry): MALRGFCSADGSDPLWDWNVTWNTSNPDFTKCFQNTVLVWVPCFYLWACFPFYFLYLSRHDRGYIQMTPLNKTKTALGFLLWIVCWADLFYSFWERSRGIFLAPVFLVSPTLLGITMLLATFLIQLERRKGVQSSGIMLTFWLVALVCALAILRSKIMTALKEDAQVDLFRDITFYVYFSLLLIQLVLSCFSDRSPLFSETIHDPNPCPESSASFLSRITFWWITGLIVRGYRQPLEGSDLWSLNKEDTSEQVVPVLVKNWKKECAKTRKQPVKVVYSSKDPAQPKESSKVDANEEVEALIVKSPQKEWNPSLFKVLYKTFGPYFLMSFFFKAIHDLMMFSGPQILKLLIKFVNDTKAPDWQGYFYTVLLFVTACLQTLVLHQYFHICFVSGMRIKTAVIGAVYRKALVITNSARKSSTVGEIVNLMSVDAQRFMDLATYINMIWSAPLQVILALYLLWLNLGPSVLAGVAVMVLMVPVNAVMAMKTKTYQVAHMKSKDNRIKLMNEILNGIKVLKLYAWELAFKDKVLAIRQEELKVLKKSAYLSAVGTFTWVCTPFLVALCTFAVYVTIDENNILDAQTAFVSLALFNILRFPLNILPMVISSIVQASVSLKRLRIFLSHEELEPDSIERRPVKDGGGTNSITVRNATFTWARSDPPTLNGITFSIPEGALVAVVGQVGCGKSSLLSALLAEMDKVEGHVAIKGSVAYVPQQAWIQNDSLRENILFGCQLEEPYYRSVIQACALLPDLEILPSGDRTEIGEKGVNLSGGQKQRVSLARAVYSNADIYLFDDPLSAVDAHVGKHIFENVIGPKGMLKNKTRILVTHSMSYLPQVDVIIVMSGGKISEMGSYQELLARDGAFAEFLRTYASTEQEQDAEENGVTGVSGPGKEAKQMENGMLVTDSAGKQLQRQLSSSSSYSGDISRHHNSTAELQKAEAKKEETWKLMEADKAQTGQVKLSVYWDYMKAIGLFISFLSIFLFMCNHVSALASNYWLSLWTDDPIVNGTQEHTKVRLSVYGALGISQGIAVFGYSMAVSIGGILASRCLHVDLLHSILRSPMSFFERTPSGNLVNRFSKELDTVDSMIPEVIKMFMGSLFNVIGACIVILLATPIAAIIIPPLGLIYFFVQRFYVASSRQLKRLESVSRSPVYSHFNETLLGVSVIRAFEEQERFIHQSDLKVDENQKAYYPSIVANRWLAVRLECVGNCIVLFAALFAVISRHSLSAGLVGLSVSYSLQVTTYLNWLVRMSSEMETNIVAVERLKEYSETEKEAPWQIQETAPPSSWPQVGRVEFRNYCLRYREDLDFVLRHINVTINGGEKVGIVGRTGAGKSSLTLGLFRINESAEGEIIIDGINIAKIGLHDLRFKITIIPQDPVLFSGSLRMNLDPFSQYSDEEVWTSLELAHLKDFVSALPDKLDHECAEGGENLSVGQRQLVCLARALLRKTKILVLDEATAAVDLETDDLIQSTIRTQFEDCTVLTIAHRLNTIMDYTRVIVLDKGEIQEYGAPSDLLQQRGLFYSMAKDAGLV

[9] = test system: HEK293 cells overexpressing MRP1; experiment: MTT growth inhibition, HEK293 cells overexpressing MRP1; conditions: HEK293/MRP1 vs HEK293

Row | SMILES | IC50 [1] [µM] | IC50 [2] [µM] | IC50 [3] [µM] | Inhibition of MRP2 substrate efflux [4] | fold more cytotoxic than Ru2 ([1]; MCF7 cancer cell line) | IG50 times higher than for non-transfected cells, BCRP [5] [times] | Inhibition of BCRP (ABCG2) substrate efflux [6] | IG50 times higher than for non-transfected cells, P-gp ([7]; NIH3T3/P-gp vs NIH3T3) [times] | IC50 ([7]; read-out: Half inhibitory growth concentration, IG50, P-gp, NIH3T3 overexpressing P-gp, 48 h incubation at 37 °C, MTT) [µM] | Inhibition of MRP1 substrate efflux [8] | IG50 times higher than for non-transfected cells, MRP1 [9] [times]
1 | N.N.[Cl][Pt][Cl] [Cisplatin, reference compound] | 38 ± 1.41 | 122 ± 25 |  |  |  |  |  |  |  |  | 
2 | O=S(=O)([O-])C(F)(F)F.OCc1ccnc(-c2cc(CO)ccn2)c1.[Ru+2].c1cc[cH-]c1.c1ccc(P(c2ccccc2)c2ccccc2)cc1 [Ru1, [Ru(η^5-Cp)(PPh3)(2,2’-bipyridine-4,4’-dimethanol)][CF3SO3]] | 4.61 ± 0.96 | 13.9 ± 2.8 | 28 | did not display any inhibition property | ~ 7 fold | 2.8 | did not display any inhibition property | 2.4 | ~70 | did not display any inhibition property | 2
